Our source for the T/C values is ChEMBL document CHEMBL1127670, “Comparative molecular field analysis of the antitumor activity of 9H-thioxanthen-9-one derivatives against pancreatic ductal carcinoma 03” (1994).

The subject of the first assay is Mus musculus. As to the kind of experiment: Compound was tested for in vivo growth inhibition of pancreatic ductal adenocarcinoma (Panc 03) in mice, expressed as antitumor efficacy; range is 0-10. In kind it is functional.
Take `CNCc1ccc(NCCCN(C)C)c2c(=O)c3ccccc3sc12`: the T/C is given as 10 score (0-10). Still for that read-out and setting: the result for `CNCc1ccc(NCCN(C)C)c2c(=O)c3ccccc3sc12` reads 10 score (0-10). Still for that read-out and setting: the result for `CCN(CC)CCNc1ccc(CN(C)S(=O)(=O)CC)c2sc3ccccc3c(=O)c12` reads 0 score (0-10).

For the molecule `CCN(CC)CCNc1ccc(CSC)c2sc3ccccc3c(=O)c12`, the T/C is 10 score (0-10). The same measure, in the same setting: the result for `CCN(CC)CCNc1ccc(CNS(=O)(=O)c2ccccc2)c2sc3ccccc3c(=O)c12` reads 10 score (0-10).

Another assay concerns Mus musculus. Description: The compound was tested for in vivo growth inhibition of pancreatic ductal adenocarcinoma (Panc 03) in mice. It is filed as functional.
As to `CCN(CC)CCNc1ccc(CNS(=O)(=O)c2ccc(N)cc2)c2sc3ccccc3c(=O)c12`, the T/C is given as 3%. Still for that read-out and setting: with `CCN(CC)CCNc1ccc(/C=N/c2ccccc2)c2sc3ccccc3c(=O)c12` the figure was 2%; with `CCCCCCC(=O)OCc1ccc(NCCN(CC)CC)c2c(=O)c3ccccc3sc12`, 2%.

The next assay relates to Mus musculus. As to the kind of experiment: Compound was tested for in vivo growth inhibition of pancreatic ductal adenocarcinoma (Panc 03) in mice, expressed as antitumor efficacy; range is 26-42. It is filed as functional.
`CCN(CC)CCNc1ccc(CN(C)C)c2sc3ccccc3c(=O)c12` showed a T/C of 42%. On the same count and under the same terms, with `CCN(CC)CCNc1ccc(COC(=O)C(C)(C)C)c2sc3ccccc3c(=O)c12` the figure was 42%. Same read-out and setting: the result for `CCN(CC)CCNc1ccc(COC)c2sc3ccccc3c(=O)c12` reads 26%.

Another assay has as its system Mus musculus. Description: Compound was tested for in vivo growth inhibition of pancreatic ductal adenocarcinoma (Panc 03) in mice, expressed as antitumor efficacy; range is 11-25. In kind it is functional.
Turning to `CCN(CC)CCNc1ccc(CO)c2sc3ccccc3c(=O)c12` [HYCANTHONE], the T/C was 25%. The same measure, in the same setting: with `CCN(CC)CCNc1ccc(CNC(=O)c2ccccc2)c2sc3ccccc3c(=O)c12` the figure was 25%; with `Cc1ccc(NCCN(C)C)c2c(=O)c3ccccc3sc12`, 25%.

A further assay has as its system Mus musculus. As to the kind of experiment: Compound was tested for in vivo growth inhibition of pancreatic ductal adenocarcinoma (Panc 03) in mice, expressed as antitumor efficacy. It is filed as functional.
In turn, `CCN(CC)CCNc1ccc(CNC(C)=O)c2sc3ccccc3c(=O)c12` returned a T/C of 0%. Regarding `CCN(CC)CCNc1ccc(C(N)=O)c2sc3ccccc3c(=O)c12`, the T/C came out at 0%. Same read-out and setting: with `CCN(C=O)Cc1ccc(NCCN(CC)CC)c2c(=O)c3ccccc3sc12` the figure was 0%; with `CN(C)CCNc1ccc(CN)c2sc3ccccc3c(=O)c12`, 0%; with `CN(C)CCNc1ccc(CNS(C)(=O)=O)c2sc3ccccc3c(=O)c12`, 0%.

The molecule `CCN(CC)CCNc1ccc(CN(CC)S(C)(=O)=O)c2sc3ccccc3c(=O)c12` displayed a T/C of 0%. The same measure, in the same setting: with `CCN(CC)CCNc1ccc(CN(C)S(C)(=O)=O)c2sc3ccccc3c(=O)c12` the figure was 0%; with `CCNCc1ccc(NCCN(CC)CC)c2c(=O)c3ccccc3sc12`, 0%.
